A short description of data set [1]: Solubility noted during patch-clamp concentration-response. Particulars: bath solution, 200 μM. The class given is physicochemical. For orientation: The patch-clamp technique gives a direct electrical read-out from membranes.
In data set [2] the target is T1, rat KCa2.2a (UniProt P0DP23+P70604).
T1 construct: expressed in transfected cells; host or cells: HEK293
In words: Inside-out patch-clamp potentiation of KCa2.2a channels expressed in HEK293 cells. The class given is cell-based. The conditions noted are these: for Emax: current at −90 mV at maximal compound concentration normalized to 10 μM Ca2+, read-out: Emax on KCa2.2a channels (I/Imax); for EC50: HEK293, 0.15 μM Ca2+, current at −90 mV, read-out: EC50 (mean ± SEM, μM) on potentiating KCa2.2a channels; for efficacy (Emax) on KCa2.2a channels: normalized to 10 μM Ca2+. As for the experimental part:
The impact of adding one substituent group at C4 of the cyclohexane moiety of CyPPA with either electron donating (OH (2a), NH2 (2b), CH2OH (2c), and OCH3 (2d)) or electron-withdrawing groups (F (2e) and NO2 (2f)) was explored. The potency of the newly synthesized compounds compared to the template CyPPA was measured via inside-out patch clamp electrophysiology recordings with KCa2.2a channels heterologously expressed in HEK293 cells (FIG. 1A). […] The responses induced by 10 μM Ca^2+ are considered the maximal currents of the KCa2.2a channels. To evaluate the efficacy (Emax) of compounds on KCa2.2a channels, the current amplitudes at −90 mV in response to the maximal concentration of compounds were normalized to that obtained at 10 μM Ca^2+ (I/Imax (%), FIG. 1C).
The effect of newly synthesized compounds on the KCa2.x/KCa3.1 channels was investigated as previously described (Nam, Y. W.; et al, Acta Physiol (Oxf) 2020, e13552; Nam, Y. W.; et al. Scientific reports 2018, 8 (1), 10749). Briefly, the rat KCa2.2a, human KCa2.1, human KCa2.3 or human KCa3.1 channels cDNA constructs were either generated in-house or through molecular cloning services (Genscript). The channel cDNAs, along with CaM and GFP, at a ratio of 7:4:2 (ORF ratios), were transfected into HEK293 cells by the calcium-phosphate method. KCa currents were recorded 1-2 days after transfection, with an Axon200B amplifier (Molecular Devices) at room temperature. The resistance of the patch electrodes ranged from 3-5 MΩ. The pipette solution contained (in mM): 140 KCl, 10 Hepes (pH 7.4), 1 MgSO4. The bath solution containing (in mM): 140 KCl, 10 Hepes (pH 7.2), 1 EGTA, 0.1 Dibromo-BAPTA, and 1 HEDTA was mixed with Ca^2+ to obtain the desired free Ca^2+ concentrations, calculated using the software by Chris Patton of Stanford University (https://somapp.ucdmc.ucdavis.edu/pharmacology/bers/maxchelator/webmaxc/webmaxcS.htm). The Ca^2+ concentrations were verified using a Ca^2+ calibration buffer kit (Thermo Fisher Scientific). Briefly, a standard curve was generated using the Ca^2+ buffers from the kit and a fluorescence Ca^2+ indicator. Then, the Ca^2+ concentrations of the bath solution were determined through interpolation on the standard curve.
High resistance seals (>1 GΩ) were formed before inside-out patches were obtained. The seal resistance of inside-out patches was >1 GΩ, when the intracellular face was initially exposed to a zero-Ca^2+ bath solution. Currents were recorded by repetitive 1-s-voltage ramps from −100 mV to +100 mV from a holding potential of 0 mV. The currents were filtered at 2 kHz and digitized at a sampling frequency of 10 kHz. At the end of experiment, the integrity of the patch was examined by switching the bath solution back to the zero-Ca^2+ buffer. Data from patches, which maintained the seal resistance (>1 GΩ) after solution changes, were used for further analysis.
To measure the effect of CyPPA (Alomone Labs) and newly synthesized compounds, the intracellular face was exposed to bath solutions with 0.15 μM Ca^2+. One minute after switching of bath solutions, ten sweeps with a 1-s interval were recorded at a series of concentrations of compound in the presence of 0.15 μM Ca^2+. The maximal KCa2.x/KCa3.1 current in response to 10 μM Ca^2+ was then recorded.
Patch-clamp recordings were analyzed using Clampfit 10.5 (Molecular Devices LLC) and concentration-response curves were analyzed in GraphPad Prism 9.0.2 (GraphPad Software Inc.). To construct the concentration-dependent potentiation of channel activities by compound, the current amplitudes at −90 mV in response to various concentrations of the compound were normalized to that obtained at a maximal concentration of compound. The normalized currents were plotted as a function of the concentrations of the compound. EC50 values and Hill coefficients were determined by fitting the data points to a standard concentration-response curve (Y=100/(1+(X/EC50)^−Hill)). […]

The target of the next data set is T2, human KCa2.3 channels (Homo sapiens, UniProt P0DP23+Q9UGI6).
T2 construct: expressed in transfected cells; host or cells: HEK293
Particulars: cited from earlier work.

In data set [3] the target is T1, rat KCa2.2a. The conditions noted are these: KCa2.2/KCa2.3 vs KCa2.1/KCa3.1; cited from earlier work.

Entries after “also recorded” stand apart in the source; their conditions may differ. Where only a bound is given, the exact number is not on record here.

`Cc1cc(Nc2cc(C(=O)O)ccc2F)nc(-n2nc(C)cc2C)n1` [Compound 2v, 3-((2-(3,5-Dimethyl-1H-pyrazol-1-yl)-6-methylpyrimidin-4-yl)amino)-4-fluorobenzoic acid]: the “solubility” value in data set [1] is “limited solubility at 200 μM”. The Emax at rat KCa2.2a [2] (HEK293) amounted to 50 ± 5.78%. In addition, the EC50 (usually the concentration that produces a half-maximal response) on rat KCa2.2a [2] (inside-out patch) came out at 37.6 ± 3.66 µM. In addition, the “efficacy (Emax) on KCa2.2a channels” value on rat KCa2.2a [2] is reported as “reduced efficacy”. `Cc1cc(NC2CCCCC2)nc(-n2nc(C)cc2C)n1` [CyPPA, N-cyclohexyl-2-(3,5-dimethyl-1H-pyrazol-1-yl)-6-methylpyrimidin-4-amine]: on human KCa2.3 channels, the “potency on KCa2.3 compared to KCa2.2a channels, background statement” value was “slightly but significantly higher potency on KCa2.3 channels than KCa2.2a channels”. In addition, at rat KCa2.2a [3], the “subtype selectivity, previously reported” value is “selectively potentiates KCa2.2a and KCa2.3, but not KCa2.1 and KCa3.1 channel subtypes; also recorded: potentiate the KCa2.2 and KCa2.3, but not the KCa2.1 and KCa3.1 channel subtypes”. In addition, the Emax at rat KCa2.2a [2] (HEK293) was determined as 82.4 ± 4.91%. In addition, at rat KCa2.2a [2] (inside-out patch), the EC50 is 7.48 ± 0.56 µM. On to “N^1-(2,5-Difluorophenyl)-6-(3,5-dimethyl-1H-pyrazol-1-yl)pyrimidine-2,4-diamine [Compound 3f]”, for which the concentration for a half-maximal effect (EC50) on rat KCa2.2a [2] (inside-out patch) was above 100 µM. On the same count and under the same terms, the result for “N^1-(2-Chloro-5-fluorophenyl)-6-(3,5-dimethyl-1H-pyrazol-1-yl)pyrimidine-2,4-diamine [Compound 3e]” reads above 100 µM; that for “N^1-(3-Chloro-4-(trifluoromethyl)phenyl)-6-(3,5-dimethyl-1H-pyrazol-1-yl)pyrimidine-2,4-diamine [Compound 3g]”, above 100 µM. With “N^1-(3-Chloro-4-fluorophenyl)-2-(3,5-dimethyl-1H-pyrazol-1-yl)pyrimidine-4,6-diamine [Compound 4]”, the “activity / potency on KCa2.2a channels” value on rat KCa2.2a [2] (inside-out patch, HEK293) is recorded as “reduced potency”. Also, the EC50 on rat KCa2.2a [2] (inside-out patch) was 6.59 ± 0.64 µM. Moreover, the “efficacy (Emax) on KCa2.2a channels” value at rat KCa2.2a [2] was “retaining their efficacy”. Turning to “N^1-(3-Chloro-4-fluorophenyl)-6-(3,5-dimethyl-1H-pyrazol-1-yl)pyrimidine-2,4-diamine [Compound 3b]”, at rat KCa2.2a [2] (inside-out patch), the EC50 was above 100 µM. Still for that read-out and setting: next, “N^1-(3-Chlorophenyl)-6-(3,5-dimethyl-1H-pyrazol-1-yl)pyrimidine-2,4-diamine [Compound 3a]”: above 100 µM; “N^1-(4-Chloro-2-fluorophenyl)-6-(3,5-dimethyl-1H-pyrazol-1-yl)pyrimidine-2,4-diamine [Compound 3d]”: above 100 µM. “N^1-(5-Chloro-2-fluorophenyl)-6-(3,5-dimethyl-1H-pyrazol-1-yl)pyrimidine-2,4-diamine [Compound 3c]”: the concentration giving a half-maximal response (EC50) on rat KCa2.2a [2] (inside-out patch) is above 100 µM.
